Test results taken from patent US20040254182A1, “Enhanced propertied pharmaceuticals” (priority 2000, published 2004).

Columns and labels:
[1] = test system: Escherichia coli 8739; experiment: High resolution minimum inhibitory concentration (HRMIC) test vs E. coli 8739; format: cell-based; conditions: M9GY medium, 96-well microtiter plate, 10^6 CFU/mL, 30° C. for 24 h; first well with no growth
Procedure: (§1) Several compounds of this invention were tested for biological activity in vitro against Escherichia coli 8739 and Staphylococcus aureus 6538 described below. The following test procedures were employed.
(§2) MIC Determination: The lowest concentration of test compound required to inhibit Escherichia coli 8739 and Staphylococcus aureus 6538 was determined by a high resolution minimum inhibitory concentration (HRMIC) test. Varying amounts of the test compounds were added to minimal salts glucose medium (Maniatis, T., Fritsch, E. F., Sambrook, J. 1982 Molecular Cloning, page 68) supplemented with 0.1% yeast extract (M9GY) in a 96-well microtiter plate. […] serial dilutions were performed on a Biomek 2000 Workstation to obtain a range of closely spaced concentrations of test compound as shown in FIG. 1. A cell suspension of inoculum, adjusted to provide 10^6 CFU/mL in each well, was added to the microtiter plate. Microtiter plates were incubated at 30° C. for 24 h and then were checked for the presence or absence of microbial growth in each well.

[2] = test system: Staphylococcus aureus 6538; experiment: High resolution minimum inhibitory concentration (HRMIC) test vs S. aureus 6538; format: cell-based; conditions: M9GY medium, 96-well microtiter plate, 10^6 CFU/mL, 30° C. for 24 h; first well with no growth
Procedure: as §1, §2

Structure (SMILES) | melting point [°C] | MIC vs E. coli 8739 Gram-negative [1] [ppm AI] | MIC vs S. aureus 6538 Gram-positive [2] [ppm AI]
CCCCOC(=O)C(OC(=O)C(C)C)OC(=O)N1CCN(c2cc3c(cc2F)c(=O)c(C(=O)O)cn3CC)CC1 (centres unmarked) [Compound 8-1, 7-(4-[(Butoxycarbonyl)(2-methylpropanoyloxy)methoxycarbonyl]-1-piperazinyl)-1-ethyl-6-fluoro-1,4-dihydro-4-oxo-3-quinolinecarboxylic acid] | 151.5 to 160 | 2.5 | 0.06
CCn1cc(C(=O)O)c(=O)c2cc(F)c(N3CCN(C(=O)OC(OC(=O)c4ccccc4)C(=O)OC(C)C)CC3)cc21 (centres unmarked) [Compound 8-2, 7-(4-[(Isopropoxycarbonyl)(benzoyloxy)methoxycarbonyl]-1-piperazinyl)-1-ethyl-6-fluoro-1,4-dihydro-4-oxo-3-quinolinecarboxylic acid] | 135 to 143 | 3 | 0.45
CCCCCCCCCCCC(=O)OC(OC(=O)N1CCN(c2cc3c(cc2F)c(=O)c(C(=O)O)cn3CC)CC1)C(=O)OC(C)C (centres unmarked) [Compound 8-3, 7-(4-[(Isopropoxycarbonyl)(dodecanoyloxy)methoxycarbonyl]-1-piperazinyl)-1-ethyl-6-fluoro-1,4-dihydro-4-oxo-3-quinolinecarboxylic acid] | 105.5 to 109.2 | 40 | 4.5
CCn1cc(C(=O)O)c(=O)c2cc(F)c(N3CCN(C(=O)OC(OC(=O)C(C)c4ccc(CC(C)C)cc4)C(=O)OC(C)C)CC3)cc21 (centres unmarked) [Compound 8-4, 7-(4-[(2-[4-(2-Methylpropyl)phenyl]propanoyloxy)(isopropoxycarbonyl)methoxy-carbonyl]-1-piperazinyl)-1-ethyl-6-fluoro-1,4-dihydro-4-oxo-3-quinolinecarboxylic acid] | 88 to 96.5 | >1000 | 0.7
CCn1cc(C(=O)O)c(=O)c2cc(F)c(N3CCNCC3)cc21 [Norfloxacin, reference compound] | – | 0.2 | 0.9
